In brackets after ≈: the same amount, converted by molar mass.
Key:
Mus musculus [1] = test: (§1) Antitumor activity against L1210 leukemia in mice after subcutaneous administration (Q2Dx5) at a dose 32 mg/kg out of 6 mice tested; assay type: ADME, organism-based; design: dose 32 mg/kg, route subcutaneous; settings: in vivo, sc
Mus musculus [2] = test: Compound was evaluated for antitumor activity against L1210 leukemia in mice after subcutaneous administration (Q2Dx5) at 32 mg/kg; assay type: functional
Mus musculus [3] = test: (§2) Antitumor activity against L1210 leukemia in mice after subcutaneous administration (Q2Dx5) at a dose 12 mg/kg out of 3 mice tested; assay type: ADME, organism-based; design: dose 12 mg/kg, route subcutaneous; settings: in vivo, sc
Mus musculus [4] = test: as §1; assay type: functional
Mus musculus [5] = test: Compound was evaluated for antitumor activity against L1210 leukemia in mice after subcutaneous administration (Q2Dx5) at a dose 9 mg/kg; assay type: functional; settings: for ILS at 9 mg/kg: Mus musculus, L1210, sc
Mus musculus [6] = test: Antitumor activity against L1210 leukemia in mice after subcutaneous administration (Q2Dx5) at a dose 17 mg/kg out of 9 mice tested; assay type: functional
L1210 [7] = test: Compound was evaluated for growth inhibition and minimal inhibitory concentration was reported against L1210 cells.; assay type: functional, Mus musculus
L1210 [8] = test: (§3) Compound was evaluated for transport properties against L1210 cells for influx; assay type: functional, cell-based, Mus musculus
Mus musculus [9] = test: (§4) Antitumor activity against L1210 leukemia in mice after subcutaneous administration (Q2Dx5) at a dose 24 mg/kg out of 9 mice tested; assay type: ADME, organism-based; design: dose 24 mg/kg, route subcutaneous; settings: in vivo, sc
Mus musculus [10] = test: Compound was evaluated for antitumor activity against L1210 leukemia in mice after subcutaneous administration (Q2Dx5) at a dose 12 mg/kg; assay type: functional; settings: for ILS at 12 mg/kg: L1210, sc
Mus musculus [11] = test: Antitumor activity against L1210 leukemia in mice after subcutaneous administration (Q2Dx5) at a dose 18 mg/kg out of 9 mice tested; assay type: ADME, organism-based; design: dose 18 mg/kg, route subcutaneous; settings: in vivo, sc
Mus musculus [12] = test: as §4; assay type: functional
Mus musculus [13] = test: as §2; assay type: functional
Mus musculus [14] = test: Compound was evaluated for antitumor activity against L1210 leukemia in mice after subcutaneous administration (Q2Dx5) at a dose 32 mg/kg; assay type: functional; settings: L1210, sc
L1210 [15] = test: Compound was evaluated for transport properties against L1210 cells for efflux; assay type: functional, Mus musculus
Mus musculus [16] = test: Compound was evaluated for antitumor activity against L1210 leukemia in mice after subcutaneous administration (Q2Dx5) at a dose 18 mg/kg; assay type: functional; settings: for ILS at 18 mg/kg: L1210, sc
Mus musculus [17] = test: Antitumor activity against L1210 leukemia in mice after subcutaneous administration (Q2Dx5) at a dose 18/mg/kg out of 9 mice tested; assay type: functional
Mus musculus [18] = test: (§5) Antitumor activity against L1210 leukemia in mice after subcutaneous administration (Q2Dx5) at a dose 24 mg/kg out of 3 mice tested; assay type: ADME, organism-based; design: dose 24 mg/kg, route subcutaneous; settings: in vivo, sc
Mus musculus [19] = test: (§6) Antitumor activity against L1210 leukemia in mice after subcutaneous administration (Q2Dx5) at a dose 12 mg/kg out of 9 mice tested; assay type: functional
Mus musculus [20] = test: (§7) Antitumor activity against L1210 leukemia in mice after subcutaneous administration (Q2Dx5) at a dose 9 mg/kg out of 6 mice tested; assay type: ADME, organism-based; design: dose 9 mg/kg, route subcutaneous; settings: in vivo, sc
Mus musculus [21] = test: as §6; assay type: ADME, organism-based; design: dose 12 mg/kg, route subcutaneous; settings: in vivo, sc
Mus musculus [22] = test: as §5; assay type: functional
Mus musculus [23] = test: Compound was evaluated for antitumor activity against L1210 leukemia in mice after subcutaneous administration (Q2Dx5) at a dose 24 mg/kg; assay type: functional; settings: for ILS at 24 mg/kg: L1210, sc
Mus musculus [24] = test: as §7; assay type: functional
Enterococcus faecium = test: Compound was evaluated for growth inhibition against Streptococcus faecium ATCC 8043; assay type: functional, organism-based
Mus musculus [25] = test: (§8) Antitumor activity against L1210 leukemia in mice after subcutaneous administration (Q2Dx5) at a dose 24 mg/kg out of 10 mice tested; assay type: ADME, organism-based; design: dose 24 mg/kg, route subcutaneous; settings: in vivo, sc
Mus musculus [26] = test: (§9) Antitumor activity against L1210 leukemia in mice after subcutaneous administration (Q2Dx5) at a dose 9 mg/kg out of 10 mice tested; assay type: ADME, organism-based; design: dose 9 mg/kg, route subcutaneous; settings: in vivo, sc
Mus musculus [27] = test: (§10) Antitumor activity against L1210 leukemia in mice after subcutaneous administration (Q2Dx5) at a dose 32 mg/kg out of 10 mice tested; assay type: ADME, organism-based; design: dose 32 mg/kg, route subcutaneous; settings: in vivo, sc
Mus musculus [28] = test: as §9; assay type: functional
Mus musculus [29] = test: as §10; assay type: functional
Mus musculus [30] = test: (§11) Antitumor activity against L1210 leukemia in mice after subcutaneous administration (Q2Dx5) at a dose 18 mg/kg out of 10 mice tested; assay type: ADME, organism-based; design: dose 18 mg/kg, route subcutaneous; settings: in vivo, sc
Mus musculus [31] = test: (§12) Antitumor activity against L1210 leukemia in mice after subcutaneous administration (Q2Dx5) at a dose 12 mg/kg out of 10 mice tested; assay type: functional
Mus musculus [32] = test: Compound was evaluated for antitumor activity against L1210 leukemia in mice after subcutaneous administration (Q2Dx5) at 24 mg/kg; assay type: functional
Mus musculus [33] = test: as §11; assay type: functional
Mus musculus [34] = test: as §8; assay type: functional
Mus musculus [35] = test: Compound was evaluated for antitumor activity against L1210 leukemia in mice after subcutaneous administration (Q2Dx5) at 18 mg/kg; assay type: functional
Mus musculus [36] = test: as §12; assay type: ADME, organism-based; design: dose 12 mg/kg, route subcutaneous; settings: in vivo, sc
Dihydrofolate reductase = target: T1, Dihydrofolate reductase (Mus musculus, UniProt P00375); test: Compound was evaluated for binding affinity against Dihydrofolate reductase of L1210 cells; assay type: cell-based
T1 sequence (P00375 whole entry): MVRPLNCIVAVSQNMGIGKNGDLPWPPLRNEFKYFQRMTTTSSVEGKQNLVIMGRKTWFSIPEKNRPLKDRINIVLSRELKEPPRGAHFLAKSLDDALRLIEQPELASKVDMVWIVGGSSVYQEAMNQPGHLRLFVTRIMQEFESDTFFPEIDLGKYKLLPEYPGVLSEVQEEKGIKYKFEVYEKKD

L1210 [37] = test: as §3; assay type: functional, Mus musculus
Lacticaseibacillus casei = test: Compound was evaluated for growth inhibition against Lactobacillus casei ATCC 7469; assay type: functional, organism-based
[38] = Enterococcus faecium, ATCC 8043, read-out: IC50

CC[C@@H](Cc1cnc2nc(N)nc(N)c2n1)c1ccc(C(=O)N[C@@H](CCC(=O)O)C(=O)O)cc1
Toxic deaths (Mus musculus [1]): 1 | MST (Mus musculus [2]): 18.8 days | Toxic deaths (Mus musculus [3]): 0 | 30 days survivors (Mus musculus [4]): 0 | MST (Mus musculus [5]): 15.7 days | 30 days survivors (Mus musculus [6]): 0 | MIC50 (L1210 [7]; Mus musculus): 1.52 nM (≈ 0.711 ng/mL) | Ki (L1210 [8]): 1620 nM | Toxic deaths (Mus musculus [9]): 0 | ILS at 12 mg/kg (Mus musculus [10]): 138% | Toxic deaths (Mus musculus [11]): 0 | 30 days survivors (Mus musculus [12]): 0 | ILS at 24 mg/kg (Mus musculus [12]; L1210, sc): 163% | 30 days survivors (Mus musculus [13]): 0 | ILS at 32 mg/kg (Mus musculus [14]): 181% | k (L1210 [15]): 0.249 min⁻¹ | MST (Mus musculus [16]): 17.3 days | ILS at 18 mg/kg (Mus musculus [16]): 187%

CC[C@H](Cc1cnc2nc(N)nc(N)c2n1)c1ccc(C(=O)N[C@@H](CCC(=O)O)C(=O)O)cc1
30 days survivors (Mus musculus [17]): 1 | Toxic deaths (Mus musculus [18]): 3 | 30 days survivors (Mus musculus [19]): 0 | MST (Mus musculus [5]): 18.3 days | ILS at 9 mg/kg (Mus musculus [5]): 177% | Toxic deaths (Mus musculus [20]): 0 | MIC50 (L1210 [7]; Mus musculus): 0.43 nM (≈ 0.201 ng/mL) | Ki (L1210 [8]): 1580 nM | MST (Mus musculus [10]): 19.8 days | ILS at 12 mg/kg (Mus musculus [10]): 199% | Toxic deaths (Mus musculus [21]): 3 | 30 days survivors (Mus musculus [22]): 0 | Toxic deaths (Mus musculus [11]): 5 | MST (Mus musculus [23]): 10 days | ILS at 24 mg/kg (Mus musculus [23]): 55% | k (L1210 [15]): 0.253 min⁻¹ | MST (Mus musculus [16]): 17.5 days | ILS at 18 mg/kg (Mus musculus [16]): 165% | 30 days survivors (Mus musculus [24]): 0

CC[C@H](CC1CNc2nc(N)nc(N)c2N1)c1ccc(C(=O)N[C@@H](CCC(=O)O)C(=O)O)cc1 (mixture of isomers)
IC50 (Enterococcus faecium; [38]): 2.5 ng/mL

CCC(Cc1cnc2nc(N)nc(N)c2n1)c1ccc(C(=O)NC(CCC(=O)O)C(=O)O)cc1 (racemic)
MST (Mus musculus [2]): 16 days | Toxic deaths (Mus musculus [25]): 2 | Toxic deaths (Mus musculus [26]): 0 | MST (Mus musculus [5]): 15.5 days | ILS at 9 mg/kg (Mus musculus [5]): 135% | Toxic deaths (Mus musculus [27]): 10 | 30 days survivors (Mus musculus [28]): 0 | 30 days survivors (Mus musculus [29]): 0 | MST (Mus musculus [10]): 16.7 days | ILS at 12 mg/kg (Mus musculus [10]): 153% | Toxic deaths (Mus musculus [30]): 0 | 30 days survivors (Mus musculus [31]): 0 | MST (Mus musculus [32]): 20.3 days | 30 days survivors (Mus musculus [33]): 0 | ILS at 24 mg/kg (Mus musculus [23]): 207% | ILS at 32 mg/kg (Mus musculus [14]): 67% | 30 days survivors (Mus musculus [34]): 2 | MST (Mus musculus [35]): 19.3 days | ILS at 18 mg/kg (Mus musculus [16]; Mus musculus): 193% | Toxic deaths (Mus musculus [36]): 0

CCC(CC1=Nc2c(N)nc(N)nc2NC1)c1ccc(C(=O)NC(CCC(=O)O)C(=O)O)cc1 (racemic)
IC50 (Enterococcus faecium; [38]): 1.1 ng/mL (≈ 2.34 nM)

CCC(CC1CNc2nc(N)nc(N)c2N1)c1ccc(C(=O)NC(CCC(=O)O)C(=O)O)cc1 (racemic)
IC50 (Enterococcus faecium; [38]): 2.6 ng/mL (≈ 5.51 nM)

CC[C@H](CC1CNc2nc(N)nc(N)c2N1)c1ccc(C(=O)N[C@@H](CCC(=O)O)C(=O)O)cc1 (stereo in doubt)
IC50 (Enterococcus faecium): 3.1 ng/mL (≈ 6.57 nM)

C[C@H](Cc1cnc2nc(N)nc(N)c2n1)c1ccc(C(=O)N[C@@H](CCC(=O)O)C(=O)O)cc1 (stereo in doubt; d-L-15a)
Ki (Dihydrofolate reductase): 0.00424 nM | MIC50 (L1210 [7]; Mus musculus): 0.68 nM (≈ 0.308 ng/mL) | Ki (L1210 [8]): 1910 nM | k (L1210 [37]): 0.258 min⁻¹

CC[C@@H](CC1=Nc2c(N)nc(N)nc2NC1)c1ccc(C(=O)N[C@@H](CCC(=O)O)C(=O)O)cc1 (stereo in doubt; form 1)
IC50 (Enterococcus faecium): 1.1 ng/mL (≈ 2.34 nM)

CC[C@@H](CC1=Nc2c(N)nc(N)nc2NC1)c1ccc(C(=O)N[C@@H](CCC(=O)O)C(=O)O)cc1 (stereo in doubt; form 2)
IC50 (Enterococcus faecium; [38]): 1.1 ng/mL (≈ 2.34 nM)

C[C@H](Cc1cnc2nc(N)nc(N)c2n1)c1ccc(C(=O)N[C@@H](CCC(=O)O)C(=O)O)cc1 (stereo in doubt; l-L-15a)
Ki (Dihydrofolate reductase): 0.00317 nM | MIC50 (L1210 [7]): 1.18 nM (≈ 0.535 ng/mL) | Ki (L1210 [8]): 1900 nM | k (L1210 [37]): 0.267 min⁻¹

CN(Cc1cnc2nc(N)nc(N)c2n1)c1ccc(C(=O)N[C@@H](CCC(=O)O)C(=O)O)cc1 [METHOTREXATE]
IC50 (Lacticaseibacillus casei): 0.013 ng/mL (≈ 0.0286 nM) | Toxic deaths (Mus musculus [25]): 10 | Toxic deaths (Mus musculus [26]): 0 | ILS (Mus musculus [5]): 137% | MST (Mus musculus [5]): 15.7 days | 30 days survivors (Mus musculus [28]): 0 | MIC50 (L1210 [7]; Mus musculus): 2.48 nM (≈ 1.13 ng/mL) | Ki (L1210 [8]): 5610 nM | MST (Mus musculus [10]): 16.3 days | Toxic deaths (Mus musculus [30]): 6 | 30 days survivors (Mus musculus [31]): 0 | 30 days survivors (Mus musculus [33]): 0 | MST (Mus musculus [23]): 9.6 days | ILS at 24 mg/kg (Mus musculus [23]): 46% | 30 days survivors (Mus musculus [34]): 0 | k (L1210 [15]): 0.213 min⁻¹ | ILS (Mus musculus [16]): 119% | MST (Mus musculus [16]): 14.5 days | Toxic deaths (Mus musculus [36]): 1 | IC50 (Enterococcus faecium): 0.4 ng/mL (≈ 0.88 nM)

From ChEMBL document CHEMBL1123545 (J Med Chem, 1986)
